pIC50: −log10 of the molar value. Values joined by “and” are separate entries in the source; they are usually repeats but may differ in a detail not shown here. Equal entries are not always repeated.
System: Hs578T multi-cell spheroids, viability
Assay: Anticancer human tumor Hs578T cell line growth inhibition [IpAb];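 further: drug exposure lasted 7 days before readout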
Conditions: for viability, T/C: stronger effect = lower value
Source text: Combinatorial screen of targeted agents with ipatasertib and abemaciclib in multi-cell type tumor spheroids
A high-throughput screen of multi-cell type tumor spheroids was designed to identify active combinations of targeted small molecules and ipatasertib or abemaciclib. Complex spheroids include a stromal component modeled by human endothelial cells (HUVEC) and fibroblasts modeled by human mesenchymal stem cells (MSCs). The concentration ranges selected for each drug and investigational agent were based upon clinically achievable concentrations if the clinical Cmax of the agent was known.
Compounds. The drugs and investigational agents: ipatasertib (NSC767898), abemaciclib(NSC768073), selumetinib (NSC741078), trametinib (758246), adavosertib (NSC754352), everolimus (NSC733504), sapanisertib (NSC764658), vemurafenib (NSC761431), venetoclax (NSC766270), copanlisib (NSC809693), apelisib (NSC765974), palbociblib (NSC758247), vemurafenib (NSC761431), dabrafenib (NSC764134), ravoxertinib (NSC781343), BMS-387032 (NSC767048), sotorasib (NSC818433), talazoparib (NSC767125) and afursertib (NSC778305), were obtained from the National Cancer Institute (NCI) Developmental Therapeutics Program Chemical Repository. The FDA-approved anticancer drug set is available from the NCI Developmental Therapeutics Program. […] The stock solutions were prepared in dimethyl sulfoxide (DMSO, Sigma-Aldrich, St. Louis, MO, cat. D2650) at 800-fold the tested concentration and stored at -70 degrees C prior to their use. All drugs and investigational agents were tested over a range starting from a high concentration at or near the clinical Cmax and decreasing in half-log increments. If the clinical Cmax for an agent had not been determined, the highest concentration tested was 10 microM.
NCI60 Cell Culture. NCI60 cell lines were obtained from the NCI Developmental Therapeutics Program Tumor Repository. For each lot of cells, the Repository performed Applied Biosystems AmpFLSTR Identifiler testing with PCR amplification to confirm consistency with the published Identifier STR profile for each cell line. Cells were kept in continuous culture for no more than 20 passages. The optimal seeding densities for each of the cell lines at each time point assessed were determined prior to performing the concentration response studies. Briefly, the NCI60 human tumor lines were grown as monolayers in RPMI 1640 medium supplemented with 10% FBS and 2 mmol/L L-glutamine.
An additional 9 lines were from the NCI60 cell line panel including MDA-MB-231 breast carcinoma, MDA-MB-468 breast carcinoma, MCF7 breast carcinoma, Hs578T breast carcinoma, MALME-3M melanoma, SK-MEL-2 melanoma, SK-OV-3 ovarian carcinoma, DU-145 prostate carcinoma, PC-3 prostate carcinoma, all cell lines along with major genetic alterations are listed on Table 2. Pooled donor human umbilical vein endothelial cells (HUVEC, Lonza, cat. CC-2519) and human mesenchymal stem cells (hMSC, Lonza, cat. PT-2501) were purchased from Lonza (Walkersville, MD).
PDMR cell lines were grown in complete medium (DC medium): Dulbecco's modified Eagle's medium (DMEM)/F12 supplemented with 5% fetal bovine serum (FBS), 2 mM L-glutamine, 100 U/mL penicillin and 100 µg/ml streptomycin, 0.4 µg/ml hydrocortisone, 10 ng/ml epidermal growth factor (EGF) recombinant human protein, 24 µg/mL adenine, and 0.1 mg/mL primocin. During culture from frozen stock vials, PDMR cells were cultured in the same medium containing 10 µM Y-27632 (see Table 3). The PDCs were cultured in complete DMEM/F12 media without 10 microM Y-27632 dihydrochloride for at least two passages prior to the screen. The pooled donor HUVEC and hMSC were cultured in endothelial cell growth medium 2 (PromoCell, Heidelberg, Germany, cat. C-22011) and mesenchymal stem cell growth medium 2 (PromoCell, cat. C-28009), respectively. For all experiments, HUVEC and hMSC were used at passages </=5.
[…]

Cc1nc(NC(=O)N2CCCC2C(N)=O)sc1-c1ccnc(C(C)(C)C(F)(F)F)c1 (stereo not given)
viability, T/C (compound 0.0316 µM): 96.6% and 110% | viability, T/C (compound 0.1 µM): 93.1% and 95.3% | viability, T/C (compound 0.316 µM): 79.6% and 79.2% | viability, T/C (compound 1 µM): 60% and 58.8% | viability, T/C (compound 3.16 µM): 42.5% and 45.5% | viability, T/C (compound 10 µM): 13.9% and 16.4% | pIC50 (curve of compound): 5.71 and 5.72

Cn1cnc2c(F)c(Nc3ccc(Br)cc3Cl)c(C(=O)NOCCO)cc21
viability, T/C (compound 0.00949 µM): 102% and 100% | viability, T/C (compound 0.03 µM): 104% and 97.5% | viability, T/C (compound 0.0949 µM): 104% and 96% | viability, T/C (compound 0.3 µM): 89.2% and 88.1% | viability, T/C (compound 0.949 µM): 79.1% and 75% | viability, T/C (compound 3 µM): 56.1% and 48.7% | pIC50 (curve of compound): < 5.52 and 5.55

Cn1ncc(Cl)c1-c1cc(C(=O)NC(CN)Cc2cccc(F)c2)sc1Cl (stereo not given)
viability, T/C (compound 0.0316 µM): 90.4% and 98.8% | viability, T/C (compound 0.1 µM): 91% and 85.1% | viability, T/C (compound 0.316 µM): 72.4% and 75.8% | viability, T/C (compound 1 µM): 60.7% and 63.9% | viability, T/C (compound 3.16 µM): 49.9% and 56.1% | viability, T/C (compound 10 µM): 0.22% and 0.31% | pIC50 (curve of compound): 5.66 and 5.58

Cn1nccc1Nc1nccc(-c2ccn(C(CO)c3ccc(Cl)c(F)c3)c(=O)c2)n1 (stereo not given)
viability, T/C (compound 0.0316 µM): 104% and 107% | viability, T/C (compound 0.1 µM): 114% and 115% | viability, T/C (compound 0.316 µM): 118% and 128% | viability, T/C (compound 1 µM): 90.7% and 94% | viability, T/C (compound 3.16 µM): 70.3% and 65.2% | viability, T/C (compound 10 µM): 24.4% and 35.9% | pIC50 (curve of compound): 5.29 and 5.25

Cn1ncnc1[C@H]1c2n[nH]c(=O)c3cc(F)cc(c23)N[C@@H]1c1ccc(F)cc1
viability, T/C (compound 0.000316 µM): 94% and 104% | viability, T/C (compound 0.001 µM): 101% and 102% | viability, T/C (compound 0.00316 µM): 88% and 103% | viability, T/C (compound 0.01 µM): 91.7% and 96.2% | viability, T/C (compound 0.0316 µM): 90.2% and 96.4% | viability, T/C (compound 0.1 µM): 82.2% and 95.2% | pIC50 (curve of compound): < 7.00

Cn1cnc2c(F)c(Nc3ccc(Br)cc3Cl)c(C(=O)NOCCO)cc21 + CC(C)NCC(C(=O)N1CCN(c2ncnc3c2C(C)CC3O)CC1)c1ccc(Cl)cc1
pIC50 (curve of first compound, second compound 0.1 µM): 5.64 | pIC50 (curve of first compound, second compound 0.316 µM): 5.92 | pIC50 (curve of first compound, second compound 1 µM): 6.40 | pIC50 (curve of first compound, second compound 3.16 µM): 6.91 | pIC50 (curve of first compound, second compound 10 µM): 7.58 | viability, T/C (second compound 0.1 µM, first compound 0.00949 µM): 96.2% | viability, T/C (second compound 0.1 µM, first compound 0.03 µM): 91.8% | viability, T/C (second compound 0.1 µM, first compound 0.0949 µM): 85.3% | viability, T/C (second compound 0.1 µM, first compound 0.3 µM): 84.2% | viability, T/C (second compound 0.1 µM, first compound 0.949 µM): 74.8% | viability, T/C (second compound 0.1 µM, first compound 3 µM): 42.8% | viability, T/C (second compound 0.316 µM, first compound 0.00949 µM): 87.7% | viability, T/C (second compound 0.316 µM, first compound 0.03 µM): 86.2% | viability, T/C (second compound 0.316 µM, first compound 0.0949 µM): 83.4% | viability, T/C (second compound 0.316 µM, first compound 0.3 µM): 64.9% | viability, T/C (second compound 0.316 µM, first compound 0.949 µM): 58% | viability, T/C (second compound 0.316 µM, first compound 3 µM): 30.4% | viability, T/C (second compound 1 µM, first compound 0.00949 µM): 77% | viability, T/C (second compound 1 µM, first compound 0.03 µM): 72% | viability, T/C (second compound 1 µM, first compound 0.0949 µM): 63.1% | viability, T/C (second compound 1 µM, first compound 0.3 µM): 54.4% | viability, T/C (second compound 1 µM, first compound 0.949 µM): 39.2% | viability, T/C (second compound 1 µM, first compound 3 µM): 19.3% | viability, T/C (second compound 3.16 µM, first compound 0.00949 µM): 53.8% | viability, T/C (second compound 3.16 µM, first compound 0.03 µM): 52.2% | viability, T/C (second compound 3.16 µM, first compound 0.0949 µM): 47.9% | viability, T/C (second compound 3.16 µM, first compound 0.3 µM): 49.4% | viability, T/C (second compound 3.16 µM, first compound 0.949 µM): 35.2% | viability, T/C (second compound 3.16 µM, first compound 3 µM): 12.4% | viability, T/C (second compound 10 µM, first compound 0.00949 µM): 52.6% | viability, T/C (second compound 10 µM, first compound 0.03 µM): 50.1% | viability, T/C (second compound 10 µM, first compound 0.0949 µM): 42.2% | viability, T/C (second compound 10 µM, first compound 0.3 µM): 43.1% | viability, T/C (second compound 10 µM, first compound 0.949 µM): 23.2% | viability, T/C (second compound 10 µM, first compound 3 µM): 5.18%

From PubChem BioAssay AID2060331 (Molecular Pharmacology Branch, DTP, NCI, 2025)
